Reference: patent US8877809B2, “Compositions and methods for treating macular degeneration” (The Trustees of Columbia University in the City of New York, priority 2007, dated 2014)
“Also recorded” adds a separate entry of the source. Like-named read-outs stand apart in the source and are kept apart here.

Assays:
[1] = mouse, in vivo; cited from earlier work
ABCR knockout mice = conditions: cited from earlier work
[2] = In vitro A2E formation from C20-fluorinated retinal, monitored by HPLC; conditions: C20 hydrogens replaced by fluorine; disappearance of retinal and absence of fluorinated A2E by HPLC
Excerpt: In the present invention, when the C20 hydrogens of all-trans-retinoids are replaced by fluorine atoms (F3), the formation of A2E is eliminated, as measured by monitoring the disappearance of C20-F3-all-trans-retinal and the absence of the corresponding fluorinated A2E by HPLC. A2E and the ATR-dimer are believed to be formed in vivo by a multi-step reaction sequence involving two molecules of all-trans-retinal, as shown in FIG. 2. In the first step, all-trans-retinal condenses with a biological amine to form the imine. This imine is then thought to undergo a hydrogen shift involving a hydrogen atom at carbon C20 (step 2). Subsequent reaction (step 3) with another molecule of retinal either by 1,2- or 1,4-addition followed by cyclizations (step 4) yields A2E or ATR-dimer precursors, respectively. A2E is subsequently formed after spontaneous oxidation in air, and ATR dimer, after elimination (step 4).
It has been shown that replacing certain C—H bonds with C—F bonds in retinal (i.e., C20-F1-3-retinal) hampers the reactivity of all-trans-retinal, and, thus slows or eliminates the formation of A2E in vitro. By replacing hydrogen atoms at C20 with fluorine, the hydrogen shift step is blocked. Accordingly, C20-F1-3-retinal is expected to appreciably slow A2E and ATR-dimer biosynthesis.

CD IGS rats = assay: A2E-lipofuscin in wild-type CD IGS rats after 8 weeks of IP retinal dosing, HPLC; type: in vivo; conditions: for Total A2E-lipofuscin versus retinal group (FIG. 7A, in words): C20-D3-retinal alone, Fenretinide or TDH given with retinal; for Less A2E-lipofuscin compared to animals administered only all-trans-retinal: all-trans-retinal 3 mg IP for 8 weeks plus drug at roughly 1.5 mg/day/animal in drinking water
Experimental: Animals treated with retinal had the greatest amount of A2E-lipofuscin (normalized to 100%).
45-50 day old, female, CD IGS rats (Charles River, Wilmington, Mass.) were divided up into four groups of three. Three of these groups were administered all-trans-retinal and the one group was given C20-D3-all-trans-retinal (IP injection in a 10% solution of Tween-20 in saline) at 3 mg, bi- or tri-weekly for 8 weeks (20, 3 mg injections total). Thus, at the end of the 8-week period the animals received roughly 20 times their original stores of vitamin A, as retinal or C20-D3-all-trans-retinal. Massive dosing with C20-D3-all-trans-retinal quickly replaces normal vitamin A stores with the C20-D3-analog. Of the three groups administered all-trans-retinal, one group was given Fenretinide (50) and another TDH (23), at doses of roughly 1.5 mg/day/animal (both supplied in the drinking water emulsified with 1 g/L of Nu-rice (RIBUS, Inc, St. Louis, Mo.)).
At the end of the 8 weeks, RPE, A2E-lipofuscin was evaluated in each of the four groups by HPLC as described in Example 3 and in FIG. 7. A2E-lipofuscin pigments were greatest in the animals receiving all-trans-retinal (the control group).

CD-1 (ICR) mice = assay: A2E-lipofuscin in eyes of CD-1 (ICR) mice after IP retinal dosing, HPLC; type: in vivo; conditions: 1.5 mg IP bi-weekly for 6 weeks; HPLC at 445 nm
Experimental: C20-D3-all-trans-retinal was administered to mice in order to measure its ability to form A2E in the eye compared to all-trans-retinal. […], 8-week old, CD-1 (ICR) mice (from Charles River, Wilmington, Mass.) were divided up into two groups of five and administered 1.5 mg of ether all-trans-retinal or C20-D3-all-trans-retinal by intraperitoneal injection (IP) injection in a 10% solution of Tween-20 in saline bi-weekly for 6 weeks. At the end of this six-week period, each mouse was given a total of 60,000 I.U.(18 mg) or about 28-times the original amount of vitamin A in the mouse's body. Massive dosing with C20-D3-all-trans-retinal quickly replaces normal vitamin A stores with the C20-D3-analog. And, the injected retinal rapidly accumulates in the eye (rod outer segments), where at high enough concentrations it will react to form lipofuscin pigments. This is similar to the accumulation of all-trans-retinal in the ABCR^−/− mice and in patents with Stargardt's disease.
At the end of the six week period, the eyes were dissected, the retinas and eyecups pooled into groups of 4 or 5, and homogenated with 50 μL ethanol. The homogenate was centrifuged at 13,000 rpm for 5 minutes and 40 μL of the supernatant was drawn off and analyzed for A2E-lipofuscin by HPLC. Retinol and retinol esters were analyzed at 325 nm and A2E-lipofuscin was measured at 445 nm.

[3] = In vitro A2E formation from retinal, ethanolamine and acetic acid, followed by HPLC; conditions: mass spectrometry of the reaction mixture after 50 hours
patients [4] = conditions: oral 600 or 900 mg/m2 bid in 6-week cycles, cited from earlier work
patients [5] = conditions: 200 mg/day for five years, 1,432 patients; cited from earlier work
ABCR−/− mice [6] = assay: Extractable lipofuscin pigments in eyecups of ABCR-/- mice raised exclusively on the diet, HPLC; type: in vivo; conditions: 5.5-6 month old mice raised only on the diet, offspring of mothers on the same diet
Experimental: On the other hand, lipofuscin pigments were undetectable in mice raised on the C20-D3-all-trans-retinol acetate diet.
As in Example 4, two groups of four ABCR^−/− mice where raised either on diets containing C20-D3-all-trans-retinol acetate or all-trans-retinol acetate. However, in this example the mice were offspring of mothers on the same diet, and thus where raised only on their respective vitamin A analogs. At 5.5-6 months of age the mice were sacrificed and the eyecups were analyzed for lipofuscin pigments as described in Example 4. The results are shown FIG. 5.

ABCR−/− mice [7] = assay: A2E-lipofuscin in eyecups of ABCR-/- mice after 3-month diet, HPLC; type: in vivo; conditions: diet with 20,000 I.U./kg for 3 months, from 2 months of age; HPLC at 445 nm
Experimental: C20-D3-all-trans-retinol acetate was prepared according to the literature procedure (47) and was administered to ABCR^−/− mice (48, 49) in order to measure its ability to lead to lipofuscin compared to that of all-trans-retinol acetate. Eight 2-month old, ABCR^−/− mice raised on a standard rodent diet were then fed a diet containing 20,000 I.U./kg of either C20-D3-all-trans-retinol acetate or all-trans-retinol acetate for 3 months.
At the end of the […] period, the eyes were dissected, eyecups pooled into groups of six and homogenated with 80 μL ethanol. The homogenate was centrifuged at 13000 rpm for 5 min and 30 μL of the supernatant was drawn off and analyzed for A2E-lipofuscin by HPLC. A2E-lipofuscin was measured at 445 nm. […] This percentage of A2E reduction is on the same order of magnitude observed in similar studies in ABCR^−/− mice with the visual cycle antagonist TDH, TDT, Ret-NH2, 13-cis-retinoic, acid and fenretinide. However, in this example A2E reduction is achieved with doses of C20-D3-all-trans-retinol acetate that are 11- to 40-times less.

ABCR−/− mice [8] = assay: Electron microscopy of RPE lipofuscin deposits in ABCR-/- mice raised exclusively on the diet; type: in vivo; conditions: 5.5-6 month old mice raised only on the diet
Excerpt: Due to the uncertainty in distinguishing lipofuscin from melanin bodies. Comparisons were made between the numbers of all dark, electron dense bodies found in the RPE between mice on the retinol acetate diet vs. those on the C20-D3-all-trans-retinol acetate diet. In addition to the electron dense lipofuscin and melanin bodies, RPE phagosomes, mitochondria, and lipid droplets are also present but were ultrastructurally distinct.
In order to measure the amount lipofuscin granules in the eyes of the above mice on a normal diet vs. the diet containing C20D3-all-trans-retinol acetate, eyecups from both groups of mice (2 from each group) were evaluated by electron microscopy.

users = conditions: cited from earlier work
[9] = 2-month-old ABCR knockout mice, 50 mg/kg bi-weekly for two months

## CC1=C(/C=C/C(C)=C/C=C/C(C)=C/CN)C(C)(C)CCC1 [Ret-NH2, All-trans-retinylamine]
[1]
  Effect on dark adaptation when administered: severe delayed dark adaptation
ABCR knockout mice; 1-month-old ABCA4 knockout mice, 40 mg/kg bi-weekly for two months
  Decrease in A2E formation compared to control ABCA4 knockout mice: about 50%

## CC(C=CC1=C(C)CCCC1(C)C)=CC=CC(=CC=O)C(F)(F)F [C20-F3-all-trans-retinal]
[2]
  Formation of A2E: eliminated

## [2H]C([2H])([2H])C(/C=C/C=C(C)/C=C/C1=C(C)CCCC1(C)C)=C\C=O [C20-D3-all-trans-retinal]
CD IGS rats; 3 mg IP bi- or tri-weekly for 8 weeks, given instead of all-trans-retinal
  Less A2E-lipofuscin than animals receiving all-trans-retinal: 35%
CD IGS rats
  Total A2E-lipofuscin versus retinal group (FIG. 7A, in words): less A2E-lipofuscin
CD-1 (ICR) mice
  Less A2E-lipofuscin compared to mice administered all-trans-retinal: 68%
[3]
  Hydrogen deuterium exchange during the reaction: not observed

## CC1=C(/C=C/C(C)=C/C=C/C(C)=C/C(=O)Nc2ccc(O)cc2)C(C)(C)CCC1 [Fenretinide, N-(4-hydroxyphenyl)retinamide]
[1]
  Effect on dark adaptation when administered: delayed dark adaptation
Patients [4]; 45 patients
  Patients with mild to moderate adverse effects possibly linked to the drug: 95%
Patients [4]
  Grade 2 toxicities reported as possibly linked to treatment: seizures and confusion
CD IGS rats
  Total A2E-lipofuscin versus retinal group (FIG. 7A, in words): less A2E-lipofuscin
  Less A2E-lipofuscin compared to animals administered only all-trans-retinal: 49%
Patients [5]
  Dermatologic disorders, incidence: 16%
  Diminished dark adaptation, cumulative incidence: 16%
  Disorders of the ocular surface, incidence: 8%
  Gastrointestinal symptoms, incidence: 8%
ABCR knockout mice; 2-month-old ABCA4 knockout mice, 20 mg/kg/day for one month
  Decrease in A2E formation compared to control ABCA4 knockout mice: 40-50%

## CCCCCCCCCCCCCCCCNC/C=C(\C)CC/C=C(\C)CCC=C(C)C [TDH, (2E,6E)-N-hexadecyl-3,7,11-trimethyldodeca-2,6,10-trienamine]
[1]
  Effect on dark adaptation when administered: delayed dark adaptation
CD IGS rats
  Total A2E-lipofuscin versus retinal group (FIG. 7A, in words): less A2E-lipofuscin
  Less A2E-lipofuscin compared to animals administered only all-trans-retinal: 31%
ABCR knockout mice; [9]
  Decrease in A2E formation compared to control ABCR knockout mice: about 50%

## all-trans-retinol acetate
ABCR−/− mice [6]
  Lipofuscin pigments extracted from eyecups (HPLC): detectable
ABCR−/− mice [6]; listed as retinol acetate
  Lipofuscin pigments extracted from eyecups (HPLC): considerable accumulation of lipofuscin pigments

## CC1=C(/C=C/C(C)=C/C=C/C(C)=C/C=O)C(C)(C)CCC1 [all-trans-retinal]
CD IGS rats; FIG. 7A, three female rats per group
  Total A2E, HPLC peak area at 445 nm, normalized: 100%

## [2H]C([2H])([2H])C(/C=C/C=C(C)/C=C/C1=C(C)CCCC1(C)C)=C\COC(C)=O [C20-D3-all-trans-retinol acetate]
ABCR−/− mice [7]
  Less A2E-lipofuscin compared to mice on a diet of all-trans-retinol acetate: 44-58%
ABCR−/− mice [8]
  Electron dense (lipofuscin) bodies in the RPE versus retinol acetate diet: less electron dense lipofuscin deposits; also recorded: considerably less electron dense bodies
ABCR−/− mice [6]
  Lipofuscin pigments extracted from eyecups (HPLC): undetectable

## CC1=C(/C=C/C(C)=C/C=C/C(C)=C\C(=O)O)C(C)(C)CCC1 [13 cis-retinoic acid]
[1]
  Effect on dark adaptation when administered: delayed dark adaptation
users; in vivo
  Share of users with back pain, muscle and joint pain, allergic reaction, dizziness, hair loss, dry eyes, decreased night vision, low blood counts and others: 10-29%
users; larger doses used to treat cancer
  Share of users with headache, fever, dry skin, dry mucous membranes, bone pain, nausea and vomiting, rash, mouth sores, itching, sweating, eyesight changes: more than 30%
ABCR knockout mice; 2-month-old ABCR knockout mice, 20 mg/kg/day for two months
  Lipofuscin formation in the RPE cell layer judged by electron microscopy: decrease in lipofuscin formation
ABCR knockout mice; 3-month-old ABCR knockout mice, 40 mg/kg/day for one month
  Decrease in A2E formation compared to control ABCR knockout mice: 40-50%

## CCCCCCCCCCC(=O)/C=C(\C)CC/C=C(\C)CCC=C(C)C [TDT, (12E,16E)-13,17,21-trimethyldocosa-12,16,20-trien-11-one]
[1]
  Effect on dark adaptation when administered: delayed dark adaptation
ABCR knockout mice; [9]
  Decrease in A2E formation compared to control ABCR knockout mice: 50-85%
